What was measured:
Format in all cases: functional
Rhizoctonia solani = experiment: Fungicidal activity against Rhizoctonia solani ET0007 assessed as mycelial growth inhibition at 25 mg/L after 1 day; settings: ET0007, 24 h, read-out: GI
Gaeumannomyces graminis = experiment: Fungicidal activity against Gaeumannomyces graminis MAFF305168 assessed as mycelial growth inhibition at 25 mg/L after 1 day; settings: MAFF305168, 24 h, read-out: GI
Rhynchosporium secalis = experiment: Fungicidal activity against Rhynchosporium secalis IFO-5290 assessed as mycelial growth inhibition at 25 mg/L after 14 days; settings: IFO-5290, 336 h, read-out: GI
Alternaria alternata = experiment: Fungicidal activity against Alternaria alternata APS-38 assessed as mycelial growth inhibition at 25 mg/L after 3 days; settings: APS-38, 72 h, read-out: GI
Microdochium nivale = experiment: Fungicidal activity against Microdochium nivale IFO-7432 assessed as mycelial growth inhibition at 25 mg/L after 3 days; settings: IFO-7432, 72 h, read-out: GI
Zymoseptoria tritici = experiment: Fungicidal activity against Zymoseptoria tritici S3 assessed as mycelial growth inhibition at 25 mg/L after 14 days; settings: S3, 336 h, read-out: GI
Cercospora beticola = experiment: Fungicidal activity against Cercospora beticola Be-2-6 assessed as mycelial growth inhibition at 25 mg/L after 7 days; settings: Be-2-6, 168 h, read-out: GI
Pyrenophora graminea = experiment: Fungicidal activity against Pyrenophora graminea IFO-7507 assessed as mycelial growth inhibition at 25 mg/L after 3 days; settings: IFO-7507, 72 h, read-out: GI
Fusarium graminearum = experiment: Fungicidal activity against Fusarium graminearum H3 assessed as mycelial growth inhibition at 25 mg/L after 3 days; settings: H3, 72 h, read-out: GI

SMILES	inhibition of growth at 25 µg/mL (Rhizoctonia solani) [%]	inhibition of growth at 25 µg/mL (Gaeumannomyces graminis) [%]	inhibition of growth at 25 µg/mL (Rhynchosporium secalis) [%]	inhibition of growth at 25 µg/mL (Alternaria alternata) [%]	inhibition of growth at 25 µg/mL (Microdochium nivale) [%]	inhibition of growth at 25 µg/mL (Zymoseptoria tritici) [%]	inhibition of growth at 25 µg/mL (Cercospora beticola) [%]	inhibition of growth at 25 µg/mL (Pyrenophora graminea) [%]	inhibition of growth at 25 µg/mL (Fusarium graminearum) [%]
Cc1cc(=O)n(C(=O)/C=C/c2ccccc2)o1	92	0	100	67	59	62	91	90	26
Cc1cc(=O)n(C(=O)/C=C/c2ccc(Cl)cc2)o1	66	20	100	54	45	77	77	77	43
Cc1cc(=O)n(C(=O)c2ccccc2I)o1	57	25	100	33	61	47	88	92	36
Cc1cc(=O)n(C(=O)CC(C)(C)C)o1	71	97	96	64	76	70	93	76	47
Cc1cc(=O)n(C(=O)C2(C)C(C)(C)C2(Cl)Cl)o1 (stereo not drawn)	24	0	87	31	36	50	80	79	20
Cc1cc(=O)n(C(=O)CCCCC(=O)n2oc(C)cc2=O)o1	18	56	100	81	61	52	93	91	27
Cc1cc(=O)n(C(=O)C(C)(C)C)o1	43	83	100	84	82	64	85	95	40
Cc1cc(O)no1 [HYMEXAZOL]	28	56	100	74	77	86	88	80	45
Cc1cc(=O)n(C(=O)CCl)o1	19	66	100	81	72	70	94	89	28
Cc1cc(=O)n(C(=O)/C=C/c2ccsc2)o1	100	45	100	50	69	61	90	97	32
Cc1cc(=O)n(C(=O)Cc2ccccc2)o1	5	66	99	67	51	83	84	71	32
Cc1cc(=O)n(C(=O)C2CCc3ccccc3C2)o1 (stereo not drawn)	50	57	100	64	82	95	80	73	40
